As usually defined, the IC50 is the concentration that inhibits the measured activity by half. A high value points to a need for much substance.

Drawing on US9840494B2, “Quinazoline derivative” (Tianjin Hemay Oncology Pharmaceutical Co., Ltd., priority 2013, dated 2017), this text covers IC50 for 3 molecules.

In one test the target is T1, EGFR (Homo sapiens, UniProt P00533).
T1 construct: purchased Invitrogen Company PV3872
The experiment in a line: Inhibitory effect on tyrosine kinase activity of EGFR. Type of test: biochemical. Conditions: EGFR 40 ng/ml, ATP 10 μM, 30 min. Here is the method: EGFR: Invitrogen Company, Catalogue No. PV3872
pGT (poly(glutamic acid-tyrosine)): Sigma-Aldrich Company, Catalogue No. P0275
The assay method is briefly described as follows.
3.1.1 At 4° C., 96-well microtiter plate was coated with 0.2 mg/mL pGT (as the substrate of enzyme) dissolved in PBS (phosphate buffer) overnight. Unbound pGT was washed away with a washing solution (0.05% Tween −20 in PBS), and the plate was dried in the air at room temperature for 2 h.
3.1.2 The enzyme reaction was performed in 50 μl reaction system containing 50 mM HEPEs (N-(2-hydroxyethyl)piperazine-N′-2-ethanesulfonic acid), pH 7.5, 0.01% BRIJ-35 (polyoxyethylene lauryl ether), 10 mM MgCl2, 1 mM EGTA (ethylene glycol bis(2-aminoethyl ether)tetraacetic acid), with certain concentrations of ATP (adenosine triphosphate) and kinase, and proceeded for 30 min at room temperature. The phosphate group at the terminal of ATP can be transferred to tyrosine residues of pGT by kinase catalysis so as to phosphorylate the tyrosine residues.
3.1.3 A final concentration of 1% SDS (sodium dodecyl sulfate) was added to terminate the reaction. The phosphorylated tyrosine residues were identified using pY-20. HRP at the end of the antibody enabled TMB to take on color. Then equal amount of 2 N H2SO4 was added to terminate the reaction. OD value, which is positively correlated with the phosphorylation degree of tyrosine residues of pGT, was measured at 450 nm
3.2 The concentrations of the kinase and substrate ATP were determined with reference to the literature “Optimization of a LanthaScreen Kinase assay for EGFR (ErbB1)”(https://tools.lifetechnologies.com/content/sfs/manuals/EGFR_LanthaScreen_actity_Europium.pdf), published by Invitrogen Corporation. The selection criteria for the final concentrations are that the concentration of kinase enabling the yield of the product within the linear range of the detection system and the concentration of ATP approching Km (Michaelis constant) value.
3.3.1 An appropriate amount of a compound was dissolved in DMSO (dimethylsulfoxide) to prepare 2 mM stock solution. Then the stock solution was diluted with DMSO to obtain a working solution with a 50-fold concentration of the highest test concentration, and subjected to a 4-fold gradient dilution to obtain seven concentrations in total.
5 μl 10-fold concentration of ATP dissolved in H2O (the concentration of ATP in EGFR assay is 100 μM, and in Her2 assay is 400 μM) was added to initiate the enzyme reaction followed by reaction at room temperature for 30 min
The mean value of inhibition rate and SD (standard deviation) were determined by duplicate wells. A curve with the concentration of the compound as abscissa and being in logarithmic distribution and the mean value of inhibition rate as ordinate was plotted and fitted using four-parameter logistic function.

Test [1] has as its system human non-small cell lung cancer cell line HCC827. The test can be described thus: In vitro inhibitory action on human tumor cells, HCC827 (SRB). Conditions: SRB assay, usually 3 days. Type of test: cell-based. Here is the method:
Human epidermoid carcinoma cell line A431, human non-small cell lung cancer cell line HCC827, head and neck cancer cell lines Fadu and human pancreatic cancer cell line AsPC-1 were purchased from Cell Bank, Chinese Academy of Sciences.
3.2 Cell culture method: cells were cultured in the complete medium at 37° C. under 5% CO2 and saturated humidity until logarithmic growth phase, i.e., adherent cells substantially approach complete confluence, and then collected for subsequent assay. For the adherent cells, they were firstly digested with trypsin/EDTA to detach.
3.3 A certain number of cells were seeded into 96-well cell culture plates (hereinafter referred to as 96-well plates). […] Finally, total cellular protein in the wells was determined using SRB assay, or cell viability was determined with MTT assay.
3.3.1 The cell seeding concentration was determined by cell growth curve assay which completely simulates compound inhibition assay process. […]
3.4 Dilution and addition of compounds: the concentration of DMSO that can be tolerant by the cells was determined by DMSO tolerance assay, and thereby selecting the dilution and addition methods of compounds. The effects of different concentrations of DMSO on cell growth were determined by DMSO tolerance assay. […] Two methods are finally determined as follows. […]

T1 sequence (P00533 25-1210): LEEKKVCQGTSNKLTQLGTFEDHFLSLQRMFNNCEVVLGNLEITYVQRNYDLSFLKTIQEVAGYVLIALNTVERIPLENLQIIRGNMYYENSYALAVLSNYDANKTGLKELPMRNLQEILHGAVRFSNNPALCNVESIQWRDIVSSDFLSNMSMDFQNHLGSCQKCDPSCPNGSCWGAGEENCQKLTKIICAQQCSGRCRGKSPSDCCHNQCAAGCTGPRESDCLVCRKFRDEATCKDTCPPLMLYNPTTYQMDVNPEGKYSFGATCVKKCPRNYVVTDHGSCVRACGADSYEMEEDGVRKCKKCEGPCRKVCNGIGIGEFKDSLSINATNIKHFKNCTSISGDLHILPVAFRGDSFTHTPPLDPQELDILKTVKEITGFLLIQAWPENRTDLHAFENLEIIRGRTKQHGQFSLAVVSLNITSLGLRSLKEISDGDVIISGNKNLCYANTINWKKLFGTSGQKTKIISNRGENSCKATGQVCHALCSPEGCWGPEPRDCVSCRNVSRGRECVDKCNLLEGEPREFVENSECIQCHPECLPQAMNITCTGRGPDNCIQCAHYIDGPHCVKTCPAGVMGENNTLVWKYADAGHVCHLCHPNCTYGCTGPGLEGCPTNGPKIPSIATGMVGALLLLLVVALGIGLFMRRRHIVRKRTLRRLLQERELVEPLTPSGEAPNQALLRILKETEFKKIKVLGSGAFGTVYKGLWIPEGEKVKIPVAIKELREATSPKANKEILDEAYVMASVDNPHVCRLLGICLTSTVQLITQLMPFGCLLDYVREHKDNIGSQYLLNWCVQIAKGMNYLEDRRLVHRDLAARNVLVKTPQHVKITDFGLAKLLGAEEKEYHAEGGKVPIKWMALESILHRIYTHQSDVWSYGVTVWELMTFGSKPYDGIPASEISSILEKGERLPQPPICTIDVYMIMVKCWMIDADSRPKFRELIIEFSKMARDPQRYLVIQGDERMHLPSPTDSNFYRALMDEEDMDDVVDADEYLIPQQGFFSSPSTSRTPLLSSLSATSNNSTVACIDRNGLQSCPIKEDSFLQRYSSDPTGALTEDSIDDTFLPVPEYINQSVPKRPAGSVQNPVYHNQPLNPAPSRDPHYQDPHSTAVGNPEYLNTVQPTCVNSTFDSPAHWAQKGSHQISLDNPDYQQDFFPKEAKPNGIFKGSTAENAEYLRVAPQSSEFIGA

Turning to `COCCOc1cc2ncnc(Nc3ccc(F)c(Cl)c3)c2cc1NC(=O)C=C1CCN(CCOC)CC1` [Compound 1, N-[4-(3-chloro-4-fluorophenylamino)-7-(2-methoxyethoxy)quinazolin-6-yl]-2-[1-(2-methoxyethyl)piperidin-4-ylidene]acetamide], the IC50 on EGFR amounted to 0.4 nM; in test [1] (Homo sapiens, HCC827, 72 h), 8 nM.
For the molecule `COCCOc1cc2ncnc(Nc3ccc(F)c(Cl)c3)c2cc1NC(=O)C=C1CCN(CCOC)CC1.Cl.Cl` [Compound 2, N-[4-(3-chloro-4-fluorophenylamino)-7-(2-methoxyethoxy)quinazolin-6yl]-2-[1-(2-methoxyethyl)piperidin-4-ylidene]acetamide dihydrochloride], half-maximal inhibition against EGFR (IC50) required 0.5 nM.
Regarding `COCCOc1cc2ncnc(Nc3ccc(F)c(Cl)c3)c2cc1NC(=O)C=C1CCN(CCOC)CC1.CS(=O)(=O)O` [Compound 3, N-[4-(3-chloro-4-fluorophenylamino)-7-(2-methoxyethoxy)quinazolin-6-yl]-2-[1-(2-methoxyethyl)piperidin-4-ylidene]acetamide dimethylsulfonate], the IC50 was determined as 0.4 nM against EGFR and 10 nM in test [1].
